Each block holds one compound with its values, some of them ahead of it.
How the values were obtained:
[1] = target: T1, T antigen (Simian virus 40, UniProt P03070); test: ATPase activity of purified T antigen; type: biochemical, polyomavirus; details: for Fold change in ATPase activity of T antigen: compound 10 μM, purified T antigen, normalized to DMSO, mean of 3 experiments
[2] = target: T1, T antigen; details: cited from earlier work
[3] = target: human Hsp70 (Homo sapiens, UniProt P0DMV8); test: Endogenous Hsp70 ATPase activity; type: biochemical
human Hsp70, sequence (P0DMV8 whole entry): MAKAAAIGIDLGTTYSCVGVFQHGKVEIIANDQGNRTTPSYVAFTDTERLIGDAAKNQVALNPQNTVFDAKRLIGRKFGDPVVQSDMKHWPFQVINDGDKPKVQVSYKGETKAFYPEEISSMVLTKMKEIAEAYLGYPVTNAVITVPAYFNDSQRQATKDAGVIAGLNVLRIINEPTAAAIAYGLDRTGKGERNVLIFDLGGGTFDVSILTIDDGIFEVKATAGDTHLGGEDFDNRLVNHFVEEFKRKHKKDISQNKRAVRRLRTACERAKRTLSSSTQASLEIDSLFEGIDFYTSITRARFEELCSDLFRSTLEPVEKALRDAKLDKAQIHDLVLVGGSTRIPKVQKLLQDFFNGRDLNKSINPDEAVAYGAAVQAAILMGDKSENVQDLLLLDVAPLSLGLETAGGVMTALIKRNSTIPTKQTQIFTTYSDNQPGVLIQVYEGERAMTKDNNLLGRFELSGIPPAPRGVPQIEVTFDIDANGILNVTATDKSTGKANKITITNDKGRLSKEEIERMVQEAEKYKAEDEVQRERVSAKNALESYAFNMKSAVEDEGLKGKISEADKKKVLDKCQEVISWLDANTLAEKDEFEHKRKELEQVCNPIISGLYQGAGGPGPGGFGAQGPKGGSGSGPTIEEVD

[4] = system: JC Virus; test: JC virus replication in COS7 cells; type: cell-based; details: comparison with cidofovir
[5] = system: human foreskin fibroblasts; test: Cytotoxicity in human foreskin fibroblasts; type: cell-based; details: in words
[6] = system: RMS13 and MCF7 cells; test: Growth inhibition of the two cancer lines; type: cell-based; details: Homo sapiens, read-out: GI50 across the two cancer lines
[7] = target: Hsp70 + Hdj2 (Homo sapiens, UniProt P0DMV8); test: Hsp40; type: biochemical; details: carboxylic acid in place of tetrazole
Hsp70 + Hdj2, sequence (P0DMV8 whole entry): as above

T1 sequence (P03070 whole entry): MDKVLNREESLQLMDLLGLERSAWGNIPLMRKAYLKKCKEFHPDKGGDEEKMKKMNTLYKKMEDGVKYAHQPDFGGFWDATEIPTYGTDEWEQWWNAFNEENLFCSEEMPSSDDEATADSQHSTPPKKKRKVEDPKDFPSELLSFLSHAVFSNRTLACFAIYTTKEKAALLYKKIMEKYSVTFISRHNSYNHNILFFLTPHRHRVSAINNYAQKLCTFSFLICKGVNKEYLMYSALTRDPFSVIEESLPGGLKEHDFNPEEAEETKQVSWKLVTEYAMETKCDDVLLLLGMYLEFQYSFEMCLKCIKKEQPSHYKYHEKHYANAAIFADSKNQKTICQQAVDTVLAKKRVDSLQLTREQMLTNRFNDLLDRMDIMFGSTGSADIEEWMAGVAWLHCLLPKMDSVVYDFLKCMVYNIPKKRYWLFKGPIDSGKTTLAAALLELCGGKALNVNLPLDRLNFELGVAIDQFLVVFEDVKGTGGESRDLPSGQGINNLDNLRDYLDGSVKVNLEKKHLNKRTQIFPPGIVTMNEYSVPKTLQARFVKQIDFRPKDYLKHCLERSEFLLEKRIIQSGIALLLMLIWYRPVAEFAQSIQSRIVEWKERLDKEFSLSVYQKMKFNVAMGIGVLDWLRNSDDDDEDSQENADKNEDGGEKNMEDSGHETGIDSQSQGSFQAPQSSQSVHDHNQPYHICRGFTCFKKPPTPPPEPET

Compound: CC1=C(C(=O)OCc2ccccc2)C(c2ccc(-c3ccccc3C)cc2)N(Cc2ccc(-c3nnn[nH]3)cc2)C(=S)N1 (centres unmarked) [AMT551-058]
Fold change in ATPase activity of T antigen [1]: −7.5 fold

Compound: CC1=C(C(=O)OCc2ccccc2)C(c2ccc(-c3ccccc3C)cc2)NC(=O)N1Cc1ccc(-c2nnn[nH]2)cc1 (centres unmarked) [SMAL]
Effect on T antigen ATPase activity, in words ([1]; final concentration 10 μM): significantly reduced the ATPase activity of T antigen
IC50 ([2]; read-out: IC50 T antigen ATPase activity): 5 µM
EC50 ([2]; read-out: reported EC50 (T antigen ATPase)): ~5 µM
Effect on endogenous Hsp70 ATPase activity, in words [3]: modestly inhibited

Compound: CC1=C(C(=O)OCc2ccccc2)C(c2ccc(-c3ccccc3)cc2)N(CCCCCC(=O)O)C(=S)N1 (centres unmarked) [AMT551-071]
Fold change in ATPase activity of T antigen [1]: −1.6 fold

Compound: CC1=C(C(=O)OCc2ccccc2)C(c2ccc(-c3ccccc3C)cc2)NC(=S)N1Cc1ccc(-c2nnn[nH]2)cc1 (centres unmarked) [AMT551-093]
Fold change in ATPase activity of T antigen [1]: −7.7 fold

Compound: CC1=C(C(=O)OCc2ccccc2)C(c2ccc(-c3ccccc3)cc2)NC(=O)N1CCCCCc1nnn[nH]1 (centres unmarked) [BQU015242]
Fold change in ATPase activity of T antigen [1]: −1.4 fold
Effect on endogenous Hsp70 ATPase activity, in words [3]: modestly inhibited

Compound: CC1=C(C(=O)OCc2ccccc2)C(c2ccc(-c3ccccc3)cc2)N(Cc2ccc(-c3nnn[nH]3)cc2)C(=S)N1 (centres unmarked) [AMT580-043]
Fold change in ATPase activity of T antigen [1]: −4.5 fold
Inhibition of polyomavirus replication in cell culture, in words [4]: more potently than an existing drug, cidofovir

Compound: Nc1ccn(C[C@@H](CO)OCP(=O)(O)O)c(=O)n1.O.O [Cidofovir]
Toxicity relative to the dihydropyrimidines [5]: significantly less toxic than the dihydropyrimidines

Compound: CC1=C(C(=O)OCc2ccccc2)C(c2ccc(-c3ccccc3C)cc2)NC(=O)N1CCCCCc1nnn[nH]1 (centres unmarked) [LR340-006]
Fold change in ATPase activity of T antigen [1]: −2.1 fold

GI50 [6]: 6 to 13 µM
Compound: CCCCCCN(C(=O)CCCCCN1C(=O)NC(c2ccc(-c3ccccc3)cc2)C(C(=O)OCc2ccccc2)=C1C)C(C(=O)NCCCC)c1ccc(OCC(=O)OC)c(C(=O)OC)c1 (centres unmarked) [MAL3-101]

Compound: CC1=C(C(=O)OCc2ccccc2)C(c2ccc(-c3ccccc3)cc2)NC(=O)N1CCCCCC(=O)O (centres unmarked) [MAL2-11B]
Effect on Hsp40-dependent activation of Hsp70, in words [7]: either lacked inhibitory activity or modesty stimulated
Fold change in ATPase activity of T antigen [1]: −1.5 fold

Compound: CC1=C(C(=O)OCc2ccccc2)C(c2ccc(-c3ccccc3)cc2)NC(=S)N1CCCCCC(=O)O (centres unmarked) [AMT551-090]
Effect on Hsp40-dependent activation of Hsp70, in words [7]: either lacked inhibitory activity or modesty stimulated
Fold change in ATPase activity of T antigen [1]: −1.5 fold

Compound: CC1=C(C(=O)OCc2ccccc2)C(c2ccc(-c3ccccc3)cc2)NC(=O)N1Cc1ccc(-c2nnn[nH]2)cc1 (centres unmarked) [ML282-56]
Fold change in ATPase activity of T antigen [1]: −2.0 fold

Compound: CC1=C(C(=O)OCc2ccccc2)C(c2ccc(-c3ccccc3)cc2)NC(=S)N1CCCCCc1nnn[nH]1 (centres unmarked) [AMT580-027]
Fold change in ATPase activity of T antigen [1]: −2.1 fold

Compound: CC1=C(C(=O)OCc2ccccc2)C(c2ccc(-c3ccccc3)cc2)NC(=S)N1Cc1ccc(-c2nnn[nH]2)cc1 (centres unmarked) [AMT551-078]
Fold change in ATPase activity of T antigen [1]: −5.5 fold

Compound: CC1=C(C(=O)OCc2ccccc2)C(c2ccc(-c3ccccc3C)cc2)NC(=S)N1CCCCCc1nnn[nH]1 (centres unmarked) [AMT580-033]
Fold change in ATPase activity of T antigen [1]: −4.7 fold

Compound: CC1=C(C(=O)OCc2ccccc2)C(c2ccc(-c3ccccc3)cc2)N(Cc2ccc(-c3nnn[nH]3)cc2)C(=O)N1 (centres unmarked) [AMT628-003]
Fold change in ATPase activity of T antigen [1]: −2.3 fold
